Reference: patent US20250368649A1, “TETRAHYDROPYRIDOPYRIMIDINE PAN-KRAS INHIBITORS” (Mirati Therapeutics, Inc., priority 2022, published 2025)

What was measured:
[1] = system: MKN1 cells; test: Inhibition of KRas-mediated phosphorylation of ERK (Cisbio HTRF pERK), MKN1 cells; assay type: cell-based; conditions: Homo sapiens, MKN-1, 3 hour compound incubation, Cisbio pERK HTRF
Outline: (§1)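 Phospho-ERK signal measured by HTRF after cells had been plated at 6,000/well in RPMI supplemented with 10% FBS on day 1.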

[2] = target: KRas G13D (Homo sapiens, UniProt P01116, G13D); assay type: binding; conditions: single point, 10 nM compound, read-out: Binding to KRas (% inhibition at 10 nM) G13D
[3] = target: KRas G12C (Homo sapiens, UniProt P01116, G12C); assay type: binding; conditions: single point, 10 nM compound, read-out: Binding to KRas (% inhibition at 10 nM) G12C
[4] = target: KRas G12S (Homo sapiens, UniProt P01116, G12S); assay type: binding; conditions: single point, 10 nM compound, read-out: Binding to KRas (% inhibition at 10 nM) G12S
[5] = system: ASPC1 cells; test: Inhibition of KRas-mediated phosphorylation of ERK (Cisbio HTRF pERK), ASPC1 cells; assay type: cell-based; conditions: Homo sapiens, AsPC-1 cells; for IC50: ASPC1, 3 h, 3 hr compound incubation, Cisbio pERK HTRF; for inhibition at 0.1 µM: ASPC1, single point at 100 nM, 3 hrs compound incubation
[6] = target: KRas G12A (Homo sapiens, UniProt P01116, G12A); assay type: binding; conditions: single point, 10 nM compound, read-out: Binding to KRas (% inhibition at 10 nM) G12A
[7] = system: A549 cells; test: Inhibition of KRas-mediated phosphorylation of ERK (Cisbio HTRF pERK), A549 cells; assay type: cell-based; conditions: Homo sapiens; for IC50: A549, 3 h, 3 hr compound incubation, Cisbio pERK HTRF; for inhibition at 0.1 µM: single point at 100 nM, 3 hrs compound incubation
[8] = target: KRas WT (Homo sapiens, UniProt P01116); test: KRas binding assay (TR-FRET displacement), KRas WT; conditions: single point, 10 nM compound
[9] = system: HCT116 cells; test: Inhibition of KRas-mediated phosphorylation of ERK (Cisbio HTRF pERK), HCT116 cells; assay type: cell-based; conditions: Homo sapiens; for IC50: HCT-116, 3 h, 3 hr compound incubation, Cisbio pERK HTRF; for inhibition at 0.1 µM: HCT-116, single point at 100 nM, 3 hrs compound incubation
[10] = system: H460 cells; test: Inhibition of KRas-mediated phosphorylation of ERK (Cisbio HTRF pERK), H460 cells; assay type: cell-based; conditions: Homo sapiens; for IC50: NCI-H460, 3 h, 3 hr compound incubation, Cisbio pERK HTRF; for inhibition at 0.1 µM: NCI-H460, single point at 100 nM, 3 hrs compound incubation
[11] = system: H358 cells; test: Inhibition of KRas-mediated phosphorylation of ERK (Cisbio HTRF pERK), H358 cells; assay type: cell-based; conditions: Homo sapiens; for IC50: NCI-H358, 3 h, 3 hr compound incubation, Cisbio pERK HTRF; for inhibition at 0.1 µM: NCI-H358, single point at 100 nM, 3 hrs compound incubation
[12] = target: KRas G12D (Homo sapiens, UniProt P01116, G12D); test: biochemical; conditions: Binding to KRas (IC50 nM) G12D, TR-FRET displacement, KRas G12D
[13] = target: KRas G12R (Homo sapiens, UniProt P01116, G12R); test: biochemical; conditions: Binding to KRas (IC50 nM) G12R, TR-FRET displacement, KRas G12R
[14] = target: KRas Q61H (Homo sapiens, UniProt P01116, Q61H); test: KRas binding assay (TR-FRET displacement), KRas Q61H; conditions: single point, 10 nM compound
[15] = system: H727 cells; test: Inhibition of KRas-mediated phosphorylation of ERK (Cisbio HTRF pERK), H727 cells; assay type: cell-based; conditions: Homo sapiens; for IC50: NCI-H727, 3 h, 3 hr compound incubation, Cisbio pERK HTRF; for inhibition at 0.1 µM: NCI-H727, single point at 100 nM, 3 hrs compound incubation
[16] = target: KRas G12V (Homo sapiens, UniProt P01116, G12V); test: biochemical; conditions: Binding to KRas (IC50 nM) G12V, TR-FRET displacement, KRas G12V
[17] = system: PSN1 cells; test: Inhibition of KRas-mediated phosphorylation of ERK (Cisbio HTRF pERK), PSN1 cells; assay type: cell-based; conditions: Homo sapiens, PSN1, 3 h, 3 hour compound incubation, Cisbio pERK HTRF
Outline: as §1

Chain of KRas G12S (P01116 1-169 isoform P01116-2 G12S): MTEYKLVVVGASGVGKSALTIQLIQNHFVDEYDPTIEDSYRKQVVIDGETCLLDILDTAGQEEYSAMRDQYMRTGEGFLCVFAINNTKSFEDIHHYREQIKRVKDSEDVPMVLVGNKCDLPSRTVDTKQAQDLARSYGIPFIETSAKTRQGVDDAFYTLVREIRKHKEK
Chain of KRas G13D (P01116 1-169 isoform P01116-2 G13D): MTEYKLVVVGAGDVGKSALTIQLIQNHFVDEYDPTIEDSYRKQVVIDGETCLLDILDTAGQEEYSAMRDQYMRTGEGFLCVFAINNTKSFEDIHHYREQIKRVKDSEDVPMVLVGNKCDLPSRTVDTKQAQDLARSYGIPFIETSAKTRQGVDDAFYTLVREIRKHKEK
Chain of KRas G12C (P01116 1-169 isoform P01116-2 G12C): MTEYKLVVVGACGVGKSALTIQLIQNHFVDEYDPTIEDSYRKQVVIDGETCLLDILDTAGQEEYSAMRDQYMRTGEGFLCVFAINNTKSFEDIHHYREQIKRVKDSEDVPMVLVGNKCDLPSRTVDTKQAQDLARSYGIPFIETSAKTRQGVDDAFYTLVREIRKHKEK
Chain of KRas Q61H (P01116 1-169 isoform P01116-2 Q61H): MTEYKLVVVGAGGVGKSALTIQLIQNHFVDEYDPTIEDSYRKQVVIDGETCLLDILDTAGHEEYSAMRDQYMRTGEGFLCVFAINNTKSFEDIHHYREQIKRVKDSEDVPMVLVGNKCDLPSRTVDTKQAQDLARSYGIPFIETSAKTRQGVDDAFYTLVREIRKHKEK
Chain of KRas G12D (P01116 1-169 isoform P01116-2 G12D): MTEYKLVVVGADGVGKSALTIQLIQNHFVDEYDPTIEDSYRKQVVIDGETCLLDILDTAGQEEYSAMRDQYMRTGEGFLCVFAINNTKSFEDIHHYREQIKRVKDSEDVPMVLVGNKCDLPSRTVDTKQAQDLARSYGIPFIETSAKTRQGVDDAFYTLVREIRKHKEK
Chain of KRas G12R (P01116 1-169 isoform P01116-2 G12R): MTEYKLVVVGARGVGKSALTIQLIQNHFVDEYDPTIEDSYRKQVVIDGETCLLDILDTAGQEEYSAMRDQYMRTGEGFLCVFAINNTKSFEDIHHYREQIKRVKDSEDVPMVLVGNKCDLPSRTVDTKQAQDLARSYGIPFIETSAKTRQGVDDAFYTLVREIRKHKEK
Chain of KRas WT (P01116 1-169 isoform P01116-2): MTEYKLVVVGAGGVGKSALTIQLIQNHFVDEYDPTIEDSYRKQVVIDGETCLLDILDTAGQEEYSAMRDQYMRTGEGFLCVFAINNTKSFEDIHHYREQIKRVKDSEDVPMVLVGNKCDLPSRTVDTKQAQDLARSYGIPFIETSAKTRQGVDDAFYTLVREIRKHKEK
Chain of KRas G12V (P01116 1-169 isoform P01116-2 G12V): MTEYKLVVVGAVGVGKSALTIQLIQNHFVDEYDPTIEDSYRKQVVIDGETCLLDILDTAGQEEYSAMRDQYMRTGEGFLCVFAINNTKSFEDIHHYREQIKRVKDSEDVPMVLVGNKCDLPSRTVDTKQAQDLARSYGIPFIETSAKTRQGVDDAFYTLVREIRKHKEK
Chain of KRas G12A (P01116 1-169 isoform P01116-2 G12A): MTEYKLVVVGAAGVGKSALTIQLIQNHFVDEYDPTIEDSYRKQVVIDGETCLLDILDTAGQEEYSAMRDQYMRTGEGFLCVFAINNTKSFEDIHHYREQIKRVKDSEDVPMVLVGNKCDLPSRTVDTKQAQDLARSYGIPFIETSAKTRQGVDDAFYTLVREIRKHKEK

IC50 [1] [nM] | inhibition at 0.01 µM [2] [%] | inhibition at 0.01 µM [3] [%] | inhibition at 0.01 µM [4] [%] | IC50 [5] [nM] | inhibition at 0.01 µM [6] [%] | IC50 [7] [nM] | inhibition at 0.01 µM [8] [%] | IC50 [9] [nM] | IC50 [10] [nM] | IC50 [11] [nM] | IC50 [12] [nM] | IC50 [13] [nM] | inhibition at 0.01 µM [14] [%] | IC50 [15] [nM] | IC50 [16] [nM] | Structure (SMILES) | inhibition at 0.1 µM [7] [%] | inhibition at 0.1 µM [9] [%] | inhibition at 0.1 µM [10] [%] | inhibition at 0.1 µM [11] [%] | also measured
26.3 | 91 | 96 | 93 | 9 | 85 | 27 | 89 | 167 | 49 | 6 | 3 | < 2 | 93 | 20 | < 2 | CCc1c(F)ccc2cc(O)cc(N3CCc4c(nc(OC[C@@]56CCCN5C[C@H](F)C6)nc4N4CCCn5nc(C(=O)N6CC7CCC(C7)C6)cc5C4)C3)c12 [Example 302, 3-azabicyclo[3.2.1]octan-3-yl(5-(7-(8-ethyl-7-fluoro-3-hydroxynaphthalen-1-yl)-2-(((2R,7aS)-2-fluorohexahydro-1H-pyrrolizin-7a-yl)methoxy)-5,6,7,8-tetrahydropyrido[3,4-d]pyrimidin-4-yl)-5,6,7,8-tetrahydro-4H-pyrazolo[1,5-a][1,4]diazepin-2-yl)methanone] | 66 | 33 | 66 | 92 | inhibition at 0.1 µM [5]: 91%; inhibition at 0.1 µM [15]: 70%; IC50 [17]: 9490 nM
22.5 | 98 | 100 | 99 | 2 | 98 | 35 | 97 | 164 | 73 | 8 | < 2 | < 2 | 98 | 36 | < 2 | CCc1c(F)ccc2cc(O)cc(N3CCc4c(nc(OC[C@@]56CCCN5C[C@H](F)C6)nc4N4CCCn5nc(C(=O)N6C[C@@H](C)N[C@@H](C)C6)cc5C4)C3)c12 [Example 303, ((3 S,5R)-3,5-dimethylpiperazin-1-yl)(5-(7-(8-ethyl-7-fluoro-3-hydroxynaphthalen-1-yl)-2-(((2R,7aS)-2-fluorohexahydro-wH-pyrrolizin-7a-yl)methoxy)-5,6,7,8-tetrahydropyrido[3,4-d]pyrimidin-4-yl)-5,6,7,8-tetrahydro-4H-pyrazolo[1,5-a][1,4]diazepin-2-yl)methanone] | 62 | 3 | 34 | 98 | IC50 [17]: 6700 nM
7 | 97 | 99 | 99 | 3 | 96 | 16 | 95 | 58 | 23 | 1 | < 2 | < 2 | 96 | 5 | < 2 | CCc1c(F)ccc2cc(O)cc(N3CCc4c(nc(OC[C@@]56CCCN5C[C@H](F)C6)nc4N4CCCn5nc(C(=O)N6CC7COCC6C7)cc5C4)C3)c12 (stereo partly drawn) [Example 306, 3-oxa-6-azabicyclo[3.2.1]octan-6-yl(5-(7-(8-ethyl-7-fluoro-3-hydroxynaphthalen-1-yl)-2-(((2R,7aS)-2-fluorohexahydro-1H-pyrrolizin-7a-yl)methoxy)-5,6,7,8-tetrahydropyrido[3,4-d]pyrimidin-4-yl)-5,6,7,8-tetrahydro-4H-pyrazolo[1,5-a][1,4]diazepin-2-yl)methanone] | 77 | 51 | 81 | 100 | inhibition at 0.1 µM [5]: 99%; inhibition at 0.1 µM [15]: 80%; IC50 [17]: 2040 nM
9.6 | 92 | 97 | 97 | 6 | 90 | 21 | 92 | 226 | 67 | 7 | 2 | < 2 | 93 | 11 | < 2 | CCc1c(F)ccc2cc(O)cc(N3CCc4c(nc(OC[C@@]56CCCN5C[C@H](F)C6)nc4N4CCCn5nc(C(=O)N6CC[C@@H]7CC[C@H]6C7)cc5C4)C3)c12 [Example 338, (1S,5S)-2-azabicyclo[3.2.1]octan-2-yl(5-(7-(8-ethyl-7-fluoro-3-hydroxynaphthalen-1-yl)-2-(((2R,7aS)-2-fluorohexahydro-1H-pyrrolizin-7a-yl)methoxy)-5,6,7,8-tetrahydropyrido[3,4-d]pyrimidin-4-yl)-5,6,7,8-tetrahydro-4H-pyrazolo[1,5-a][1,4]diazepin-2-yl)methanone] | 78 | 38 | 73 | 102 | inhibition at 0.1 µM [5]: 95%; inhibition at 0.1 µM [15]: 76%; IC50 [17]: 5430 nM
8.4 | 92 | 98 | 97 | 6 | 92 | 17 | 93 | 156 | 43 | 4 | 2 | < 2 | 94 | 6 | < 2 | CCc1c(F)ccc2cc(O)cc(N3CCc4c(nc(OC[C@@]56CCCN5C[C@H](F)C6)nc4N4CCCn5nc(C(=O)N6CC7CCC6CC7)cc5C4)C3)c12 [Example 339, 2-azabicyclo[2.2.2]octan-2-yl(5-(7-(8-ethyl-7-fluoro-3-hydroxynaphthalen-1-yl)-2-(((2R,7aS)-2-fluorohexahydro-1H-pyrrolizin-7a-yl)methoxy)-5,6,7,8-tetrahydropyrido[3,4-d]pyrimidin-4-yl)-5,6,7,8-tetrahydro-4H-pyrazolo[1,5-a][1,4]diazepin-2-yl)methanone] | 80 | 20 | 59 | 95 | inhibition at 0.1 µM [5]: 97%; inhibition at 0.1 µM [15]: 74%; IC50 [17]: 5720 nM

Structure (SMILES) | IC50 [1] [nM] | inhibition at 0.01 µM [2] [%] | inhibition at 0.01 µM [3] [%] | inhibition at 0.01 µM [4] [%] | IC50 [5] [nM] | inhibition at 0.01 µM [6] [%] | IC50 [7] [nM] | inhibition at 0.01 µM [8] [%] | IC50 [9] [nM] | IC50 [10] [nM] | IC50 [11] [nM] | IC50 [12] [nM] | IC50 [13] [nM] | inhibition at 0.01 µM [14] [%] | IC50 [15] [nM] | IC50 [16] [nM] | inhibition at 0.1 µM [7] [%] | inhibition at 0.1 µM [9] [%] | inhibition at 0.1 µM [10] [%] | inhibition at 0.1 µM [11] [%] | also measured
CCc1c(F)ccc2cc(O)cc(N3CCc4c(nc(OC[C@@]56CCCN5C[C@H](F)C6)nc4N4CCCn5nc(C(=O)N6C7CCC6CC7)cc5C4)C3)c12 [Example 340, 7-azabicyclo[2.2.1]heptan-7-yl(5-(7-(8-ethyl-7-fluoro-3-hydroxynaphthalen-1-yl)-2-(((2R,7aS)-2-fluorohexahydro-1H-pyrrolizin-7a-yl)methoxy)-5,6,7,8-tetrahydropyrido[3,4-d]pyrimidin-4-yl)-5,6,7,8-tetrahydro-4H-pyrazolo[1,5-a][1,4]diazepin-2-yl)methanone] | 7.5 | 94 | 98 | 99 | 8 | 97 | 11 | 94 | 110 | 31 | 3 | < 2 | < 2 | 97 | 4 | < 2 | 82 | 32 | 69 | 96 | inhibition at 0.1 µM [5]: 96%; inhibition at 0.1 µM [15]: 80%; IC50 [17]: 2510 nM
